From patent publication US8911998B2, “Methods for identifying fragile histidine triad (FHIT) interaction and uses thereof” (priority 2007, dated 2014) come the findings set out here.

Series [1] has as its system MKN74A116 cells. The experiment in a line: ROS assessment in gastric cancer cells expressing exogenous Fhit. The format is cell-based, human. Particulars: Fhit-expressing MKN74 cells, 2 mM H2O2, 5 hr. The protocol: FIG. 10. TABLE 2, Fhit induces generation of ROS in MKN74 gastric cancer cells. ROS assessment was performed with MKN74A116, a human gastric cancer cell line carrying a p53 mutant allele and expressing exogenous Fhit; Fhit-negative MKN74E4 cells were used as a control. To induce ROS generation, we treated MKN74 cells for 5 hr with 0.5, 1.0 and 2.0 mM H2O2. […] Numbers report the average of four experiments ±S.E.
(§1) Assessment of Intracellular Reactive Oxygen Species (ROS)—Intracellular superoxide was measured through ethidium fluorescence as a result of oxidation by hydroethidine (dihydroethidium-HE; Molecular Probes). MNK74 stably Fhit expressing cells, A549 cells transiently expressing Fhit, and H1299 inducible Fhit expressing cells were treated with 0.5, 1.0, 2.0, and 4.0 mM H2O2 at 37° C.; 4 h later, hydroethidine (10 μM) was added to cells and incubated for 15 min at 37° C. Fluorescence was measured by flow cytometry. Dichlorofluorescein diacetate (DCFH-DA) (Molecular Probes) was used in D1 cells expressing induced Fhit, stressed with H2O2 (0.1 to 1.0 mM), treated with 10 μM DCFH-DA, and incubated for 1 h at 37° C. DCF fluorescence was measured by flow cytometry on a FAC-Scan flow cytometer and fluorescence microscopy.

Series [2] deals with A549 cells transiently expressing Fhit. The experiment in a line: Intracellular superoxide (ROS) by hydroethidine FACS, FHIT plasmid-transfected cells. The format is cell-based, human. The protocol: (§2) FIG. 4A, fluorescence-activated cell sorter (FACS) analysis for ROS assessment in A549 cells 48 h after transfection with FHIT plasmid, with and without a 5-h H2O2 treatment. Empty vector-transfected cells served as control. Intracellular superoxide was determined according to the fluorescence of ethidium as a result of oxidation of hydroethidine by O2. M2 refers to the fraction of ROS positive cells.
(§3) The inventors herein then investigated determine whether ROS production could be involved in Fhit-mediated apoptosis. […] The inventors examined ROS production in A549 cells, with and without H2O2 treatment, after transient transfection with the FHIT expression plasmid. Intracellular superoxide was assessed by measuring ethidium fluorescence, as a result of oxidation of hydroethydine by superoxide. Intracellular superoxide was measured 5 h after stimulation with increasing concentrations of H2O2.
as §1

Series [3] relates to A549 cells (empty vector). In words: Intracellular superoxide (ROS) by hydroethidine FACS, empty vector-transfected cells. The format is cell-based, human. The protocol: as §2, §3, §1
Series [4] has as its system H1299/D1 cells. In words: Colony formation assay. The format is cell-based. To be noted: Fhit-expressing cells, 0.25 mM or higher H2O2, 5-h treatment. The protocol: FIG. 4F, colony formation assay of H1299/D1 and H1299/E1 cells after […] PonA stimulation and a 5-h H2O2 treatment at the indicated concentrations.
Series [5] relates to H1299 E1 cells. The experiment in a line: Flow cytometry (propidium iodide) of PonA-treated Fhit-negative control cells. The format is cell-based. To be noted: for sub-G1 population: 48 h. (In flow cytometry, cells or beads pass a laser one at a time.)
Protocol: (§8) FIG. 4E, FACS analysis of D1 and E1 cell cycle kinetics at 48 h after oxidative stress treatment. Cells were treated with PonA for 48 h and then with increasing concentrations of H2O2 (0.25 and 0.5 mM) for 4 h. Analysis was at 48 h after H2O2 treatment. All experiments were performed twice in triplicate.
(§9) FIG. 6C and FIG. 6D, the graphs show representative results of flow cytometry analyses of E1 and D1 cells. Cells were treated with PonA for 48 h and then with paclitaxel (50-500 ng/ml) (FIG. 6C) or cisplatin (0.05-0.2 mM) (FIG. 6D). Each data point was measured in triplicate at 24, 48, and 72 h (data shown for 48 h).
(§10) PonA-induced H1299 D1 and E1 cells were treated with 0.25 and 0.5 mM H2O2 or with chemotherapeutic drugs and incubated for varying times, as indicated in the text and figures. For both experiments the cells were collected, washed with phosphate-buffered saline, and resuspended in cold 70% ethanol. For analysis, cells were spun down, washed in phosphate-buffered saline, and suspended in 0.1 mg/ml propidium iodide/Triton X-100 staining solution (0.1% Triton X-100, 0.2 mg/ml DNase-free RNase A) for 30 min at room temperature and analyzed by flow cytometry.
Series [6] concerns H1299 D1 cells. The experiment in a line: ROS assessment by hydroethidine FACS, Fhit-positive cells. To be noted: 5 μM PonA 48 h. The format is cell-based. The protocol:
(§4) FIG. 4B, FACS analysis for ROS assessment by the fluorescence produced from the oxidation of hydroethidine in D1 and E1 cells; 48 h after PonA treatment, cells were treated for 5 h with 0.5 and 1.0 mM H2O2 and oxidative stress was measured; % positive refers to the fraction of fluorescent cells, indicating ROS. These experiments were repeated three times with similar results.
(§5) A similar experiment was performed with p53 and Fhit negative lung cancer-derived H1299 D1 and E1 clones carrying PonA-inducible FHIT and empty vector expression plasmids, respectively; the cells were treated with 5 μM PonA and at 48 h treated with 0.5 and 1.0 mM H2O2; the % ROS-positive cells was higher in Fhit-positive D1 cells than in E1 control cells (20 versus 3.5% at 0.5 mM H2O2, and 78 versus 25% at 1.0 mM H2O2, respectively) (FIG. 4B).
(§6) Assessment of Intracellular Reactive Oxygen Species (ROS)—Intracellular superoxide was measured through ethidium fluorescence as a result of oxidation by hydroethidine (dihydroethidium-HE; Molecular Probes). […] Fluorescence was measured by flow cytometry. […] DCF fluorescence was measured by flow cytometry on a FAC-Scan flow cytometer and fluorescence microscopy.

For series [7], the system named is H1299 E1 cells. The experiment in a line: ROS assessment by hydroethidine FACS, control cells. The format is cell-based. To be noted: 5 μM PonA 48 h. The protocol:
as §4, §5, §6

Series [8] concerns H1299 D1 and E1 cells. In words: MTS cell viability assay, D1 compared with E1 cells. Particulars: for sensitivity of D1 cells relative to E1 cells (MTS cell viability): after induction of Fhit expression, paclitaxel 50-500 ng/ml or cisplatin 0.05-0.2 mM, 24 or 48 h. The protocol: FIG. 4D, MTS cell viability assays were performed on E1 and D1 cells. Cells were treated with PonA for 48 h and then with increasing concentrations of H2O2 (0.125, 0.25, and 0.5 mM) for 4 h. Analysis was at 24 h after H2O2 treatment. Columns report the average of four experiments ±S.E. Each point was measured in quadruplicate and standard deviation calculated; p<0.05 was considered significant.
MTS assays performed on E1 and D1 cells. Cells were treated with PonA for 48 h and then treated with paclitaxel (50-500 ng/ml) (FIG. 6A) or cisplatin (0.05-0.2 mM) (FIG. 6B) for 24 or 48 h.
Chemotherapeutic Drug Treatment—Paclitaxel (Sigma) was dissolved in DMSO as a 10 mmol/liter stock solution and stored at −80° C. Cisplatin (Sigma) was dissolved in water and freshly prepared before use. H1299 D1 and E1 cells were seeded (1×10^4 cells/well) in 96-well culture plates, PonA-induced, and after 24 h treated with paclitaxel (50, 100, and 500 ng/ml) or cisplatin (0.05, 0.1, and 0.2 mM). H1299 D1 and E1 cells PonA-induced were incubated for 24, 48, and 72 h and assessed for viability with an MTS kit (Cell Titer 96® Aqueous MTS kit, Upstate Biotechnology, Lake Placid, N.Y.), as recommended by the manufacturer.

The test system of series [9] is H1299 D1 cells. In words: Flow cytometry (propidium iodide) of PonA-induced Fhit-expressing cells. The format is cell-based. Particulars: for sub-G1 population: 48 h.
Protocol: as §8, §9, §10
Series [10] relates to Fdxr in D1 and E1 cells. The experiment in a line: Immunoblot of Fdxr protein level after proteasome inhibition. Particulars: 4 h after MG132 treatment (25 μA). The format is cell-based. The protocol: FIG. 5B, immunoblot analysis of Fdxr expression in D1 and E1 cells after a 4-h treatment with 25 μA MG132, a proteasome inhibitor.
(§7) Western Blot Analysis—Immunoblot analyses were performed as described (13) using monoclonal anti-pentaHis (Qiagen); rabbit polyclonal anti-Fhit (Zymed Laboratories Inc.); rabbit polyclonal antisera against GFP, Hsp60, Hsp10, and cytochrome c (Santa Cruz Biotechnology); rabbit polyclonal anti-Fdxr (Abcam); monoclonal anti-CoxIV (Molecular Probes); anti-V5 (Sigma); anti-Parp1 (Santa Cruz Biotechnology); and anti-caspase 3 (Cell Signaling). Protein levels were normalized relative to β-actin or/and GAPDH^3 level, detected with appropriate antisera (Santa Cruz Biotechnology).

In series [11] the test system is PonA-induced D1 cells. In words: Immunoblot of caspase 3 and Parp1 cleavage. The format is cell-based. To be noted: 48 h; paclitaxel 50 and 100 ng/ml, cisplatin 0.05 and 0.1 mM; compared with untreated cells. The protocol: FIG. 6E, caspase 3 and Parp1 cleavage: immunoblot analyses, using Fhit, caspase 3, and Parp1 antisera, of total cell lysates from PonA-induced D1 cells after 48 h of treatment with paclitaxel (50 and 100 ng/ml) or cisplatin (0.05 and 0.1 mM). GAPDH served as loading control.
At 24 and 72 h (data not shown) increased sub-G1 populations in D1 compared with E1 cells were also detected. To determine whether the sub-G1 fractions of D1 cells represented apoptotic cells, lysates were prepared from drug-treated cells at 48 h and immunoblot analysis performed for caspase 3 and Parp1 cleavage (FIG. […]).
as §7
A general note: Immunoblotting shows a protein as a band on a membrane.

Peptide text beside a SMILES is read from it. * marks the point of attachment. Cbz = O=C(OCc1ccccc1)*

In the case of `OO` [H2O2], the toxicity to cells entry in series [1] is “toxicity was observed”; in series [2] (Fhit-expressing A549, 2 mM H2O2), “toxic”; in series [3] (non-expressing A549, 2 mM H2O2) it was “not to non-expressing cells”. Besides, the “ROS generation (fraction of ROS positive cells)” value in series [2] (FHIT-transfected A549, 0.5 mM H2O2, 5 h) amounted to 16.7%; in series [2] (FHIT-transfected A549, 1.0 mM H2O2, 5 h), 18.8%; in [3] (empty vector A549, 0.5 mM H2O2, 5 h) it was 5.4%; in series [3] (empty vector A549, 1.0 mM H2O2, 5 h) it was 7.7%. Moreover, in [4], the colony formation result was “No colonies were detected”. The G2/M arrest in [5] (48 h after 0.25 mM H2O2) was 27.5%; in [5] (48 h after 0.5 mM H2O2), 29%; in series [9] (48 h after 0.25 mM H2O2), 45.5%; in series [9] (48 h after 0.5 mM H2O2), 49.5%. The “% ROS-positive cells” value was found to be 20% in series [6] (0.5 mM H2O2), 78% in [6] (1.0 mM H2O2), 3.5% in [7] (0.5 mM H2O2) and 25% in series [7] (1.0 mM H2O2). Besides, in series [8] (24 h after H2O2 treatment (0.125, 0.25, 0.5 mM, 4 h)), the “cell viability (MTS cytotoxicity assay)” value was “reduced cell viability or growth arrest in both E1 and D1 cells, but this phenotype was more pronounced in D1 cells”.
Regarding `CC(C)C[C@@H](C=O)NC(=O)[C@H](CC(C)C)NC(=O)[C@H](CC(C)C)NC(=O)OCc1ccccc1` [MG132] (Cbz-Leu-Leu-Leu-aldehyde), in series [10], the “Fdxr protein level in D1 cells compared with E1 cells” value was “significant increase”.
For `N.N.[Cl][Pt][Cl]` [cisplatin, Cisplatin], the sub-G1 population in series [5] (cisplatin 0.05 mM) is listed as 2.3%; in [5] (cisplatin 0.1 mM) it was 7%; in [5] (cisplatin 0.2 mM), 14.6%; in [9] (cisplatin 0.05 mM) it was 5%; in [9] (cisplatin 0.1 mM) it was 16.2%; in [9] (cisplatin 0.2 mM), 30%. In addition, in series [11], the “activated caspase 3 and related Parp1 cleavage” value was “observed”. Besides, the “sensitivity of D1 cells relative to E1 cells (MTS cell viability)” value in series [8] is recorded as “more sensitive”.
As to `CC(=O)O[C@H]1C(=O)[C@@]2(C)[C@H]([C@H](OC(=O)c3ccccc3)[C@]3(O)C[C@H](OC(=O)[C@H](O)[C@@H](NC(=O)c4ccccc4)c4ccccc4)C(C)=C1C3(C)C)[C@]1(OC(C)=O)CO[C@@H]1C[C@@H]2O` [paclitaxel, Paclitaxel], the sub-G1 population in [5] (paclitaxel 50 ng/ml) is on record as 4%; in [5] (paclitaxel 100 ng/ml) it was 16.7%; in series [5] (paclitaxel 500 ng/ml), 30%; in series [9] (paclitaxel 50 ng/ml), 9.6%; in series [9] (paclitaxel 100 ng/ml) it was 36%; in series [9] (paclitaxel 500 ng/ml), 40%. In addition, the “activated caspase 3 and related Parp1 cleavage” value in series [11] is “observed”. Besides, the “sensitivity of D1 cells relative to E1 cells (MTS cell viability)” value in series [8] is “more sensitive”.
